The test system of this assay is tested viruses (K/09, rK09/NA:Y275, K/2785). Format: cell-based, 2009 pandemic H1N1 virus. Conditions: read-out: concentration sufficient to restrict viral replication (EC50).

As for `NC(=O)c1nc(F)cnc1O` [Favipiravir, 6-fluoro-3-hydroxy-2-pyrazinecarboxamide], the EC50 was in the range of 8.39 to 14.7 µM.
